Reference: patent publication US8378104B2 (OSI Pharmaceuticals, LLC, priority 2010, dated 2013)
Counter-ions that a name gives are not always drawn.

Biological target: T1, TAK1-TAB1 fusion protein (Homo sapiens, UniProt O43318)
T1 construct: purchased Carna
T1 sequence (O43318 with tags, fused parts or gaps limits assumed): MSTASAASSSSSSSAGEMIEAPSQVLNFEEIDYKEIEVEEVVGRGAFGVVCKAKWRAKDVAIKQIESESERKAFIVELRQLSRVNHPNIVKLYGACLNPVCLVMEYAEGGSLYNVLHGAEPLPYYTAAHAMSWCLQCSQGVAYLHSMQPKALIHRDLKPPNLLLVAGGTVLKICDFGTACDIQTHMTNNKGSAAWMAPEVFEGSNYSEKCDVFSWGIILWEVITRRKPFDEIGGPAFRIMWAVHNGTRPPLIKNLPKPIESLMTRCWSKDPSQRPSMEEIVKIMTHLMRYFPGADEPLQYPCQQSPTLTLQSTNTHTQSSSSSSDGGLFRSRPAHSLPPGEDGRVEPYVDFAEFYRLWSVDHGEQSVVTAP
Experiment: TAK1 biochemical assay (AlphaScreen, GST-MAP2K7 substrate)
Conditions: TAK1-TAB1 fusion protein, GST-MAP2K7 substrate; read-out: mean TAK1 IC50 (Col. A)

Structure (SMILES) | IC50 [nM]
CC(=O)N1CCC(n2cc(-c3cnc(N)c4oc(-c5ccc(C#N)cc5)cc34)cn2)CC1 [Example 170, 4-{4-[1-(1-acetylpiperidin-4-yl)-1H-pyrazol-4-yl]-7-aminofuro[2,3-c]pyridin-2-yl}benzonitrile] | 1000 to 10000
Nc1ncc(-c2cnn(C3CCNCC3)c2)c2cc(-c3ccccc3)oc12 [Example 2, 2-phenyl-4-[1-(piperidin-4-yl)-1H-pyrazol-4-yl]furo[2,3-c]pyridin-7-amine] | 1000 to 10000
CC(=O)N1CCC(n2cc(-c3cnc(N)c4oc(-c5ccc(N6CCCC6)nc5)cc34)cn2)CC1 [Example 139, 1-[4-(4-{7-amino-2-[6-(pyrrolidin-1-yl)pyridin-3-yl]furo[2,3-c]pyridin-4-yl}-1H-pyrazol-1-yl)piperidin-1-yl]ethanone] | > 10000
CC(=O)N1CCC(n2cc(-c3cnc(N)c4oc(-c5ccc(N6CCCCC6)nc5)cc34)cn2)CC1 [Example 118, 1-[4-(4-{7-amino-2-[6-(piperidin-1-yl)pyridin-3-yl]furo[2,3-c]pyridin-4-yl}-1H-pyrazol-1-yl)piperidin-1-yl]ethanone] | > 10000
CC(=O)N1CCC(n2cc(-c3cnc(N)c4oc(-c5ccc(C(=O)N(C)C)cc5)cc34)cn2)CC1 [Example 125, 4-{4-[1-(1-acetylpiperidin-4-yl)-1H-pyrazol-4-yl]-7-aminofuro[2,3-c]pyridin-2-yl}-N,N-dimethylbenzamide] | > 10000
Nc1ncc(-c2cnn(C3CNC3)c2)c2cc(-c3cccc4cnccc34)oc12 [Example 64, 4-[1-(azetidin-3-yl)-1H-pyrazol-4-yl]-2-(isoquinolin-5-yl)furo[2,3-c]pyridin-7-amine] | 100 to 1000
CC(=O)N1CCC(n2cc(-c3cnc(N)c4oc(-c5ccnc6cc(Cl)ccc56)cc34)cn2)CC1 [Example 409, 1-(4-{4-[7-amino-2-(7-chloroquinolin-4-yl)furo[2,3-c]pyridin-4-yl]-1H-pyrazol-1-yl}piperidin-1-yl)ethanone] | 1000 to 10000
Nc1ncc(-c2cnn(C3CCCCC3)c2)c2cc(-c3cccc4cnccc34)oc12 [Example 73, 4-(1-cyclohexyl-1H-pyrazol-4-yl)-2-(isoquinolin-5-yl)furo[2,3-c]pyridin-7-amine] | 1000 to 10000
COC(=O)c1cc(-c2cnc(N)c3oc(-c4csc5cnccc45)cc23)cn1C [Example 398, 4-(7-amino-2-thieno[2,3-c]pyridin-3-yl-furo[2,3-c]pyridin-4-yl)-1-methyl-1H-pyrrole-2-carboxylic acid methyl ester] | 1000 to 10000
CC(=O)N1CCC(n2cc(-c3cnc(N)c4oc(-c5cccc(OCc6cccnc6)c5)cc34)cn2)CC1 [Example 202, 1-[4-(4-{7-amino-2-[3-(pyridin-3-ylmethoxy)phenyl]furo[2,3-c]pyridin-4-yl}-1H-pyrazol-1-yl)piperidin-1-yl]ethanone] | 1000 to 10000
Nc1ncc(-c2cnn(CCO)c2)c2cc(-c3cccc4cnccc34)oc12 [Example 67, 2-{4-[7-amino-2-(isoquinolin-5-yl)furo[2,3-c]pyridin-4-yl]-1H-pyrazol-1-yl}ethanol] | 1000 to 10000
Cn1cc2c(-c3cc4c(-c5cnn([C@H]6CC[C@H](O)CC6)c5)cnc(N)c4o3)csc2cc1=O [Example 259, 3-{7-amino-4-[1-(trans-4-hydroxycyclohexyl)-1H-pyrazol-4-yl]furo[2,3-c]pyridin-2-yl}-5-methylthieno[3,2-c]pyridin-6(5H)-one] | > 10000
COc1ccccc1NCCC(=O)N1CCC(n2cc(-c3cnc(N)c4oc(-c5cccc6cnsc56)cc34)cn2)CC1 [Example 336, 1-{4-[4-(7-amino-2-benzo[d]iso-thiazol-7-yl-furo[2,3-c]pyridin-4-yl)-pyrazol-1-yl]-piperidin-1-yl}-3-(2-methoxy-phenyl-amino)-propan-1-one] | 100 to 1000
CC(=O)N1CCC(n2cc(-c3cnc(N)c4oc(-c5ccc6c(c5)OCCO6)cc34)cn2)CC1 [Example 157, 1-(4-{4-[7-amino-2-(2,3-dihydro-1,4-benzodioxin-6-yl)furo[2,3-c]pyridin-4-yl]-1H-pyrazol-1-yl}piperidin-1-yl)ethanone] | 100 to 1000
Nc1ncc(-c2cnn(C3CCNCC3)c2)c2cc(-c3ccn[nH]3)oc12 [Example 27, 4-[1-(piperidin-4-yl)-1H-pyrazol-4-yl]-2-(1H-pyrazol-5-yl)furo[2,3-c]pyridine-7-amine] | 1000 to 10000
Nc1cncc(-c2cc3c(-c4cnn(C5CCNCC5)c4)cnc(N)c3o2)c1 [Example 31, 2-(5-aminopyridin-3-yl)-4-[1-(piperidin-4-yl)-1H-pyrazol-4-yl]furo[2,3-c]pyridine-7-amine] | 100 to 1000
CCOc1cccc(-c2cc3c(-c4cnn(C5CCN(C(C)=O)CC5)c4)cnc(N)c3o2)c1 [Example 162, 1-(4-{4-[7-amino-2-(3-ethoxyphenyl)furo[2,3-c]pyridin-4-yl]-1H-pyrazol-1-yl}piperidin-1-yl)ethanone] | 1000 to 10000
Nc1ncc(-c2cnn(C3CCNCC3)c2)c2cc(-c3cccc4cc[nH]c34)oc12 [Example 42, 2-(1H-indol-7-yl)-4-[1-(piperidin-4-yl)-1H-pyrazol-4-yl]furo[2,3-c]pyridin-7-amine] | 100 to 1000

Structure (SMILES) | IC50 [nM]
COc1cc(-c2cc3c(-c4cnn(C5CCN(C(C)=O)CC5)c4)cnc(N)c3o2)ccc1N [Example 150, 1-(4-{4-[7-amino-2-(4-amino-3-methoxyphenyl)furo[2,3-c]pyridin-4-yl]-1H-pyrazol-1-yl}piperidin-1-yl)ethanone] | 1000 to 10000
CC(=O)N1CCC(n2cc(-c3cnc(N)c4oc(-c5cccc(N(C)C)c5)cc34)cn2)CC1 [Example 116] | 1000 to 10000
CC(=O)N1CCC(n2cc(-c3cnc(N)c4oc(C5CCCCC5)cc34)cn2)CC1 [Example 152, 1-{4-[4-(7-amino-2-cyclohexylfuro[2,3-c]pyridin-4-yl)-1H-pyrazol-1-yl]piperidin-1-yl}ethanone] | 100 to 1000
CC(C)(C)OC(=O)N1CCC(n2cc(-c3cnc(N)c4oc(-c5cccc6ccsc56)cc34)cn2)CC1 [Example 17A] | > 10000
CC(=O)N1CCC(n2cc(-c3cnc(N)c4oc(-c5ccccc5C(F)(F)F)cc34)cn2)CC1 [Example 411, 1-[4-(4-{7-amino-2-[2-(trifluoromethyl)phenyl]furo[2,3-c]pyridin-4-yl}-1H-pyrazol-1-yl)piperidin-1-yl]ethanone] | > 10000
Cn1cnc(-c2cnc(N)c3oc(-c4csc5cnccc45)cc23)c1 [Example 395, 4-(1-methyl-1H-imidazol-4-yl)-2-thieno[2,3-c]pyridin-3-yl-furo[2,3-c]pyridin-7-ylamine] | > 10000
CC(=O)N1CCC(n2cc(-c3cnc(N)c4oc(-c5csc6cncc(Cl)c56)cc34)cn2)CC1 [Example 255] | 1000 to 10000
Cc1n[nH]c(C)c1-c1cnc(N)c2oc(-c3csc4cnccc34)cc12 [Example 295, 4-(3,5-dimethyl-1H-pyrazol-4-yl)-2-thieno[2,3-c]pyridin-3-yl-furo[2,3-c]pyridin-7-ylamine] | 1000 to 10000
CC(=O)N1CCC(n2cc(-c3cnc(N)c4oc(-c5coc6ccccc56)cc34)cn2)CC1 [Example 220, 1-(4-{4-[7-amino-2-(1-benzofuran-3-yl)furo[2,3-c]pyridin-4-yl]-1H-pyrazol-1-yl}piperidin-1-yl)ethanone bis(trifluoroacetate)] | 1000 to 10000
Nc1ncc(-c2cnn([C@H]3CC[C@H](O)CC3)c2)c2cc(-c3cc(-c4cc[nH]n4)cc4nnsc34)oc12 [Example 374, trans-4-(4-{7-amino-2-[5-(1H-pyrazol-3-yl)-1,2,3-benzothiadiazol-7-yl]furo[2,3-c]pyridin-4-yl}-1H-pyrazol-1-yl)cyclohexanol] | 100 to 1000
CC(=O)N1CCC(n2cc(-c3cnc(N)c4oc(-c5cccc(N)c5)cc34)cn2)CC1 [Example 130, 1-(4-{4-[7-amino-2-(3-aminophenyl)furo[2,3-c]pyridin-4-yl]-1H-pyrazol-1-yl}piperidin-1-yl)ethanone] | 100 to 1000
COc1ccccc1COc1cccc(-c2cc3c(-c4cnn(C5CCN(C(C)=O)CC5)c4)cnc(N)c3o2)c1 [Example 212, 1-{4-[4-(7-amino-2-{3-[(2-methoxybenzyl)oxy]phenyl}furo[2,3-c]pyridin-4-yl)-1H-pyrazol-1-yl]piperidin-1-yl}ethanone] | > 10000
O[C@H]1CC[C@H](n2cc(-c3cncc4oc(-c5cccc6ncsc56)cc34)cn2)CC1 | 100 to 1000
Nc1ncc(-c2cnn(C3CCNCC3)c2)c2c(Cl)c(-c3cccc4cnccc34)oc12 [Example 16, 3-chloro-2-(isoquinoolin-5-yl)-4-[1-(piperidin-4-yl)-1H-pyrazol-4-yl]furo[2,3-c]pyridin-7-amine] | 1000 to 10000
Cn1cnc2cc(-c3oc4c(N)ncc(-c5cnn(C6CCNCC6)c5)c4c3Cl)cnc21 [Example 15, 3-chloro-2-(3-methyl-3H-imidazo[4,5-b]pyridine-6-yl)-4-[1-(piperidin-4-yl)-1H-pyrazol-4-yl]furo[2,3-c]pyridin-7-amine hydrochloride] | 1000 to 10000
Nc1ncc(-c2cnn(C3CCN(C(=O)CCC4CCCCC4)CC3)c2)c2cc(-c3csc4cnccc34)oc12 [Example 334, 1-{4-[4-(7-amino-2-thieno[2,3-c]pyridin-3-yl-furo[2,3-c]pyridin-4-yl)-pyrazol-1-yl]-piperidin-1-yl}-3-cyclohexyl-propan-1-one] | 1000 to 10000
Nc1ncc(-c2cnn(C3CCNCC3)c2)c2cc(-c3cc(F)cc(F)c3)oc12 [Example 8, 2-(3,5-difluorophenyl)-4-[1-(piperidin-4-yl)-1H-pyrazol-4-yl]furo[2,3-c]pyridin-7-amine] | 1000 to 10000
